# Laboratory results as given in US5462958A, “Benzene derivatives and method of treating arteriosclerosis with benzene derivatives” (Eisai Co., Ltd., priority 1992, dated 1995).
# Experiments:
# Format in all cases: biochemical
# ACAT [1] = assay: ACAT-inhibitory activity in vitro, supernatant of homogenate of the epithelial cell (CaCO2) resulting from human colon cancer (acylation of cholesterol with radiolabeled oleoyl-CoA)
# Protocol: (§1) Representative compounds according to the present invention were examined for ACAT-inhibitory activity according to the in-vitro test method described in Journal of Lipid Research, vol. 24, pp. 1049-1059 (1983) by F. J. Field and S. N. Mathur.
# (§2) The inhibitory activity of a test compound against the acylation, which was based on the inhibitory activity of the test compound against the enzyme which catalyzes the acylation of cholesterol with oleoyl-CoA, was evaluated by using one of the supernatant of homogenate of the arterial wall of a rabbit, the microsome of the small intestine of a rat and the supernatant of homogenate of the epithelial cell (CaCO2) resulting from human colon cancer as an enzyme source, determining the amount of a radioisotope-labeled cholesterol oleate made from a radiolabeled oleoyl-CoA and (free) cholesterol and comparing the result of the case when a test compound was added with the result of control (the case when no test compound was added).
# (§3) The data which are given in Table 1 are IC50 values, i.e., the concentrations of test compounds necessary for inhibiting 50% of the enzymatic activity of ACAT.
# ACAT [2] = target: T1, ACAT (Oryctolagus cuniculus, UniProt A0A5F9CPP4); assay: ACAT-inhibitory activity in vitro, supernatant of homogenate of the arterial wall of a rabbit (acylation of cholesterol with radiolabeled oleoyl-CoA)
# T1 construct: supernatant of homogenate of the arterial wall of a rabbit; from tissue; host or cells: supernatant of homogenate of rabbit arterial wall
# T1 sequence (A0A5F9CPP4 1-555): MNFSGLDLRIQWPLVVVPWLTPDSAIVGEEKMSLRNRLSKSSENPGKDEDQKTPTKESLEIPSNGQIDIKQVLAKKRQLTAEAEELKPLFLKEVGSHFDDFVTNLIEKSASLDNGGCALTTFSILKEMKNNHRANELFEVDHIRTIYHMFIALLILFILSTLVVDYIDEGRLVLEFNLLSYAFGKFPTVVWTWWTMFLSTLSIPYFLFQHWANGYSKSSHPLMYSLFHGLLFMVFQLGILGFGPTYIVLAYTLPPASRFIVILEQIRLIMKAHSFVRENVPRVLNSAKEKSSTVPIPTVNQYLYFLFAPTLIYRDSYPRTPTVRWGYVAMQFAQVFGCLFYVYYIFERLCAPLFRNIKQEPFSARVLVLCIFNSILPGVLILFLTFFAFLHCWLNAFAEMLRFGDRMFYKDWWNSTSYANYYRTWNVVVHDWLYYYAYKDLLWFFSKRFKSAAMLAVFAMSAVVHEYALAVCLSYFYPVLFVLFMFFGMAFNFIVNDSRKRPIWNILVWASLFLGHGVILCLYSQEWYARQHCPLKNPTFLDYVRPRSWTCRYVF
# Protocol: as §1, §2, §3
# ACAT [3] = target: T2, ACAT (Rattus norvegicus, UniProt Q7TQM4); assay: ACAT-inhibitory activity in vitro, microsome of the small intestine of a rat (acylation of cholesterol with radiolabeled oleoyl-CoA)
# T2 construct: the microsome of the small intestine of a rat; from tissue; host or cells: microsomes of rat small intestine
# T2 sequence (Q7TQM4 1-524): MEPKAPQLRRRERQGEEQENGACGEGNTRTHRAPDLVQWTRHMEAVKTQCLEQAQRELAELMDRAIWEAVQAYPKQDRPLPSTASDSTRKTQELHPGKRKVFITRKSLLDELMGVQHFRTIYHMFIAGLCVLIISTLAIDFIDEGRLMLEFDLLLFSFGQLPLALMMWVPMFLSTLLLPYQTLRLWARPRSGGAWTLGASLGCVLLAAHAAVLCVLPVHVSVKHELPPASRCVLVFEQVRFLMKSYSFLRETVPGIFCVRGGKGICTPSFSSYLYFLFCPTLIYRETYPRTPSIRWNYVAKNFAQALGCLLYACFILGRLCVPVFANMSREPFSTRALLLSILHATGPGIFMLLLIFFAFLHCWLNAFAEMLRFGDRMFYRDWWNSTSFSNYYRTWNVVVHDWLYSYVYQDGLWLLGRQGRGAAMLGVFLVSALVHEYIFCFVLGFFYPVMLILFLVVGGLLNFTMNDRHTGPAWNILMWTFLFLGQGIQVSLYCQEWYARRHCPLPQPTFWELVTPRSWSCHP
# Protocol: as §1, §2, §3
SMILES,IC50 (ACAT [1]) [µM],IC50 (ACAT [2]) [µM],IC50 (ACAT [3]) [µM]
"CCCCNC(=O)Nc1c(C)cccc1OCCCn1cnc(-c2ccccc2)c1C(C)O (centres unmarked) [Example 5, N-Butyl-N'-[2-[3-[5-(1-hydroxyethyl)-4-phenyl-1H-imidazol-1-yl]propoxy]-6-methylphenyl]urea]",0.17,0.85,0.15
"CCCCNC(=O)Nc1c(C)cc(O)cc1OCCCn1cnc(-c2ccccc2)c1CC [Example 1, N-Butyl-N'-[2-[3-(5-ethyl-4-phenyl-1H-imidazol-1-yl)propoxy]-4-hydroxy-6-methylphenyl]urea]",–,0.58,–
"CCCCNC(=O)Nc1c(C)cccc1OCCCn1cnc(-c2ccc(O)cc2)c1CC [Example 2, N-Butyl-N'-[2-[3-[5-ethyl-4-(4-hydroxyphenyl)-1H-imidazol-1-yl]propoxy]-6-methylphenyl]urea]",1,6.9,–
"CCCCNC(=O)Nc1c(CO)cccc1OCCCn1cnc(-c2ccccc2)c1CC [Example 9, N-Butyl-N'-[2-[3-(5-ethyl-4-phenyl-1H-imidazol-1-yl)propoxy]-6-hydroxymethylphenyl]urea]",0.32,0.7,0.084

# Continued, values first:
IC50 (ACAT [1]) [µM],IC50 (ACAT [2]) [µM],IC50 (ACAT [3]) [µM],SMILES
0.48,1,4.2,"CCc1c(-c2ccccc2)ncn1CCCOc1cccc(C)c1NC(=O)NCCC(C)O (centres unmarked) [Example 10, N-(3-Hydroxybutyl)-N'-[2-[3-(5-ethyl-4-phenyl-1H-imidazol-1-yl)propoxy]-6-methylphenyl]urea]"
–,3.8,–,"CCc1c(-c2ccccc2)ncn1CCCOc1cccc(C)c1NC(=O)NCCCCO [Example 6, N-(4-Hydroxybutyl)-N'-[2-[3-(5-ethyl-4-phenyl-1H-imidazol-1-yl)propoxy]-6-methylphenyl]urea]"
0.1,0.26,0.068,"CCCCNC(=O)Nc1c(OCCCn2cnc(-c3ccccc3)c2CC)ccc(O)c1C [Example 11, N-Butyl-N'-[2-[3-(5-ethyl-4-phenyl-1H-imidazol-1-yl)propoxy]-5-hydroxy-6-methylphenyl]urea]"
3.5,–,–,"CCc1c(-c2ccccc2)ncn1CCCOc1cccc(C)c1NC(N)=O [Example 8, N-[2-[3-(5-Ethyl-4-phenyl-1H-imidazol-1-yl)propoxy]-6-methylphenyl]urea]"
